From ChEMBL document CHEMBL1759853, “Imidazo[1,5-a]pyrazines: orally efficacious inhibitors of mTORC1 and mTORC2” (Bioorg Med Chem Lett, 2011)
Active and inactive are the calls of the source. No cut-off for these calls is given here.

Columns and labels:
cells = conditions: Homo sapiens, HeLa
in vitro = conditions: human, liver microsomes
Description: Metabolic stability in human liver microsome assessed as extraction ratio

[1] = Metabolic stability in mouse liver microsome assessed as extraction ratio; assay type: ADME; conditions: liver microsomes
BT-20 = assay: Inhibition of mTORC2 dependent pAkT S473 phosphorylation in human BT-20 cells at 20 uM; assay type: cell-based
MDA-MB-231 [2] = assay: Inhibition of mTORC2 dependent P4E-BP1 T37/46 phosphorylation in human MDA-MB-231 cells at 20 uM; assay type: cell-based
Mus musculus [3] = assay: […] mouse bearing human MDA-MB-231 cells assessed as inhibition of 4E-BP1 T37/46 phosphorylation at 100 mg/kg, po after 8 hrs; assay type: functional, organism-based; design: dose 100 mg/kg
[4] = Inhibition of mTORC2 dependent pAkT S473 phosphorylation in human BT-20 cells; assay type: cell-based
[5] = target: T1, Insulin-like growth factor 1 receptor (Homo sapiens, UniProt P08069); assay: Inhibition of IGF-1R
[6] = AUC (0 to infinity) in mouse at 1 mg/kg, iv; assay type: ADME, organism-based; design: time infinity, dose 1 mg/kg, route intravenous; conditions: plasma
[7] = target: Proto-oncogene tyrosine-protein kinase Src (Homo sapiens, UniProt P12931); assay: Inhibition of Src
[8] = Clearance in mouse at 1 mg/kg, iv; assay type: ADME, organism-based; design: dose 1 mg/kg, route intravenous; conditions: in vivo
MDA-MB-231 [9] = assay: Antiproliferative activity against human MDA-MB-231 cells; assay type: functional, cell-based
[10] = target: Dual specificity mitogen-activated protein kinase kinase 1 (Homo sapiens, UniProt Q02750); assay: Inhibition of MEK1
[11] = Permeability of the compound by PAMPA method; assay type: ADME; conditions: read-out: permeability
[12] = Inhibition of mTORC2 dependent P4E-BP1 T37/46 phosphorylation in human MDA-MB-231 cells; assay type: cell-based
[13] = Cmax in mouse at 20 mg/kg, po; assay type: ADME, organism-based; design: dose 20 mg/kg, route oral; conditions: in vivo
[14] = AUC (0 to infinity) in mouse at 20 mg/kg, po; assay type: ADME, organism-based; design: time infinity, dose 20 mg/kg, route oral; conditions: plasma
Mus musculus [15] = assay: […] mouse bearing human MDA-MB-231 cells assessed as inhibition of 4E-BP1 T37/46 phosphorylation at 100 mg/kg, po after 4 hrs; assay type: functional, organism-based; design: dose 100 mg/kg
[16] = Bioavailability in mouse at 20 mg/kg, po; assay type: ADME, organism-based; conditions: in vivo
[17] = Volume of distribution at steady-state in mouse at 1 mg/kg, iv; assay type: ADME, organism-based; design: dose 1 mg/kg, route intravenous; conditions: in vivo, read-out: Vdss
[18] = Aqueous solubility of the compound at pH 7.4; assay type: physicochemical
[19] = target: T2, 3-phosphoinositide-dependent protein kinase 1 (Homo sapiens, UniProt O15530); assay: Inhibition of PDK1
T2 sequence (O15530 whole entry): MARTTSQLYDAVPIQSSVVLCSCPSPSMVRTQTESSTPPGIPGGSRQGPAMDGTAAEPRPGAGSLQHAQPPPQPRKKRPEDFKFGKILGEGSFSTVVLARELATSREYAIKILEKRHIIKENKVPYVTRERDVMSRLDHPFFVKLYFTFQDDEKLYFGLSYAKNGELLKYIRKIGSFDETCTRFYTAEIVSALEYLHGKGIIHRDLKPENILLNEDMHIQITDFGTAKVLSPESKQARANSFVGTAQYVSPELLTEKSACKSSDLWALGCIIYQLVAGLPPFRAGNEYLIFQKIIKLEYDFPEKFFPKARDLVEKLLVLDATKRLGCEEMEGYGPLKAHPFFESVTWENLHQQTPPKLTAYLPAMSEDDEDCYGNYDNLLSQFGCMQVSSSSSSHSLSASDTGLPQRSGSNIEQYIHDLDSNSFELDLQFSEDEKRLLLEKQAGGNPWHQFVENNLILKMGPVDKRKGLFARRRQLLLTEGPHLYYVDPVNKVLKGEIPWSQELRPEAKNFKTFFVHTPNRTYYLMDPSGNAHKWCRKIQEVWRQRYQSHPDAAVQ

Insulin receptor = Insulin receptor (Homo sapiens, UniProt P06213); assay: Inhibition of IR
[20] = Plasma protein binding in mouse; assay type: ADME, cell-free; conditions: read-out: PPB (converted)
[21] = target: Tyrosine-protein kinase ABL1 (Homo sapiens, UniProt P00519); assay: Inhibition of Abl
[22] = target: RAF proto-oncogene serine/threonine-protein kinase (Homo sapiens, UniProt P04049); assay: Inhibition of cRaf
[23] = Half life in mouse at 1 mg/kg, iv; assay type: ADME, organism-based; design: dose 1 mg/kg, route intravenous; conditions: in vivo
[24] = target: Phosphatidylinositol 4,5-bisphosphate 3-kinase catalytic subunit gamma isoform (Homo sapiens, UniProt P48736); assay: Inhibition of PI3Kgamma
[25] = target: T1, Insulin-like growth factor 1 receptor; assay: Inhibition of IGF-1R by ELISA
MDA-MB-231 [26] = assay: Antitumor activity against human MDA-MB-231 cells xenografted in CD-1 mouse at 100 mg/kg, po QD for 14 days; assay type: functional
[27] = AUC (0 to infinity) in mouse at 5 mg/kg, iv; assay type: ADME, organism-based; design: dose 5 mg/kg, route intravenous, time infinity; conditions: plasma
Mus musculus [28] = assay: Toxicity in CD-1 mouse xenografted with human MDA-MB-231 cells assessed as reduction in body weight at 100 mg/kg, po QD for 14 days; assay type: organism-based; design: dose 100 mg/kg, route oral; conditions: in vivo, 336 h
[29] = target: Vascular endothelial growth factor receptor 2 (Homo sapiens, UniProt P35968); assay: Inhibition of KDR
[30] = Volume of distribution at steady-state in mouse at 5 mg/kg, iv; assay type: ADME, organism-based; design: dose 5 mg/kg, route intravenous; conditions: in vivo, read-out: Vdss
[31] = Clearance in mouse at 5 mg/kg, iv; assay type: ADME, organism-based; design: dose 5 mg/kg, route intravenous; conditions: in vivo
[32] = Half life in mouse at 5 mg/kg, iv; assay type: ADME, organism-based; design: dose 5 mg/kg, route intravenous; conditions: in vivo
[33] = target: Epidermal growth factor receptor (Homo sapiens, UniProt P00533)

T1 sequence (P08069 31-736 limits assumed): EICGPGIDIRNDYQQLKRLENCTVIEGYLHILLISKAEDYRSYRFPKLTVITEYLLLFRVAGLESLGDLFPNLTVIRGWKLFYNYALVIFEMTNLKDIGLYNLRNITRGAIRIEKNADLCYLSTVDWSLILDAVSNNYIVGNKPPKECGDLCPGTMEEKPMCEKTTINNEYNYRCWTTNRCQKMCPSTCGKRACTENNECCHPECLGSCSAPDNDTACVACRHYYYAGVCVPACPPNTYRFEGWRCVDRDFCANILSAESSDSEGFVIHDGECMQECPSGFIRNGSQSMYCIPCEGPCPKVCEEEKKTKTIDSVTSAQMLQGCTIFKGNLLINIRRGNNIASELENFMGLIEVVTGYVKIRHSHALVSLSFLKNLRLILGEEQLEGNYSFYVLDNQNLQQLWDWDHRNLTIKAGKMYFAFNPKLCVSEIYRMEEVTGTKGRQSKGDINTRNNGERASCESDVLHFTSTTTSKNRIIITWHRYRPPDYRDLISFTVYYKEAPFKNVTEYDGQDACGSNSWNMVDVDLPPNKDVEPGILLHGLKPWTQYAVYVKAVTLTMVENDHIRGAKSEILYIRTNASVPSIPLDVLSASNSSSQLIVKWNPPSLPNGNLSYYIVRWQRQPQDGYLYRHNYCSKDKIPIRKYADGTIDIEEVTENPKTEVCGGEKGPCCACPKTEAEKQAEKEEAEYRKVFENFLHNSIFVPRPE
T1 sequence (P08069 741-1367 limits assumed): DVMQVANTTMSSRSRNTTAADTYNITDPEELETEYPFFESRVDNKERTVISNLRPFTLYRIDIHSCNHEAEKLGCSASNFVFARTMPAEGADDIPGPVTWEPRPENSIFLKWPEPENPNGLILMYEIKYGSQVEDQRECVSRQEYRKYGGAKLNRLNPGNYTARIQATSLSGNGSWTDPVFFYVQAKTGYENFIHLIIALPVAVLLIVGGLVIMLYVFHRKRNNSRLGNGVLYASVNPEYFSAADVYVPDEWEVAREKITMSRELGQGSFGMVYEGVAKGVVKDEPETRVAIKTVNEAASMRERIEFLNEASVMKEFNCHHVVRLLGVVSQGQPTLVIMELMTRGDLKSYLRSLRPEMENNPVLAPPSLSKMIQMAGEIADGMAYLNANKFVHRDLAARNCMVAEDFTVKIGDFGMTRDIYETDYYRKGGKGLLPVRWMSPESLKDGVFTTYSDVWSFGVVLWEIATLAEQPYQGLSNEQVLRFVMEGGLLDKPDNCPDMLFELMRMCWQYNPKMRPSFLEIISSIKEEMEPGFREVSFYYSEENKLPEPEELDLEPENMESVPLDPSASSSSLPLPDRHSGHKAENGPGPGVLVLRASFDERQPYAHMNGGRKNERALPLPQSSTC
Chain of RAF proto-oncogene serine/threonine-protein kinase (P04049 whole entry): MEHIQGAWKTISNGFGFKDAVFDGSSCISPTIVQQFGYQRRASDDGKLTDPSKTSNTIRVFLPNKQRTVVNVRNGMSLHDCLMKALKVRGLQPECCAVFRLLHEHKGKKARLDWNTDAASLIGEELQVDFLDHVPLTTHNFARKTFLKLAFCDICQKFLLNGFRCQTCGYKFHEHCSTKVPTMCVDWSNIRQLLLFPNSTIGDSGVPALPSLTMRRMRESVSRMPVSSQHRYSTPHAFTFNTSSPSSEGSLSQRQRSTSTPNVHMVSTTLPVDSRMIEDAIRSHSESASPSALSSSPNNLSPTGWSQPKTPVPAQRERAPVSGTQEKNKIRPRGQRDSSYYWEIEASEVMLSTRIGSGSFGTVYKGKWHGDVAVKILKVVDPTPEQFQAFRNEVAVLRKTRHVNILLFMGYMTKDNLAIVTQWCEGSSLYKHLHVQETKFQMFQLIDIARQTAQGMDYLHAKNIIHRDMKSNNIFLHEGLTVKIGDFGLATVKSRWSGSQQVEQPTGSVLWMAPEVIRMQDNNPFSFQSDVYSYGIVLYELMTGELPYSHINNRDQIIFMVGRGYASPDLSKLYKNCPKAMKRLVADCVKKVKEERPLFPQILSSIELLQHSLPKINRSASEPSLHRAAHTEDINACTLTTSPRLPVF
Chain of Dual specificity mitogen-activated protein kinase kinase 1 (Q02750 whole entry): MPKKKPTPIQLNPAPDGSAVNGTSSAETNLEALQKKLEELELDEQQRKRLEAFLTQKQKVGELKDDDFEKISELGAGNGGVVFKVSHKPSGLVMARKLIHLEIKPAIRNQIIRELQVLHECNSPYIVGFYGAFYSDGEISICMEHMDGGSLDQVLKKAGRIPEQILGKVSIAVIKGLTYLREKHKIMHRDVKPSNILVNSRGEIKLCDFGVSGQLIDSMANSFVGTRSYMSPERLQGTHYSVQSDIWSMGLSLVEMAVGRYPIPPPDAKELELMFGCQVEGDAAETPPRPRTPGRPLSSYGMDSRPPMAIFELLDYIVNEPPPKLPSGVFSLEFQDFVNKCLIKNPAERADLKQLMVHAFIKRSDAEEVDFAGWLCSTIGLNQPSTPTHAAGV
Chain of Proto-oncogene tyrosine-protein kinase Src (P12931 2-536 limits assumed): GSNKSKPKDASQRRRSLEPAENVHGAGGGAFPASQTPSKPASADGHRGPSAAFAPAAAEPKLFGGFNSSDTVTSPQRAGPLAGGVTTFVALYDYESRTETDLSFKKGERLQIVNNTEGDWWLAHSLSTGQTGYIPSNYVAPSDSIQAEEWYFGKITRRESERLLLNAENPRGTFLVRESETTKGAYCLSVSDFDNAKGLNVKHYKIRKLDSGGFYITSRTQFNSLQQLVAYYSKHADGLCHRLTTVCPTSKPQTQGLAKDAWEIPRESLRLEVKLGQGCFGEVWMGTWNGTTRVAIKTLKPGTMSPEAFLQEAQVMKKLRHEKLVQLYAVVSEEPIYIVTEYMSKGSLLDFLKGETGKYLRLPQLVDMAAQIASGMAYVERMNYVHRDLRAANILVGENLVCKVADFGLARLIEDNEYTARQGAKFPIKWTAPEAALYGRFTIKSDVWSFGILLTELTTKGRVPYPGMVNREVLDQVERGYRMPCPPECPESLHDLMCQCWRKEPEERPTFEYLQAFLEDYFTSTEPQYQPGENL
Chain of Phosphatidylinositol 4,5-bisphosphate 3-kinase catalytic subunit gamma isoform (P48736 whole entry, canonical isoform): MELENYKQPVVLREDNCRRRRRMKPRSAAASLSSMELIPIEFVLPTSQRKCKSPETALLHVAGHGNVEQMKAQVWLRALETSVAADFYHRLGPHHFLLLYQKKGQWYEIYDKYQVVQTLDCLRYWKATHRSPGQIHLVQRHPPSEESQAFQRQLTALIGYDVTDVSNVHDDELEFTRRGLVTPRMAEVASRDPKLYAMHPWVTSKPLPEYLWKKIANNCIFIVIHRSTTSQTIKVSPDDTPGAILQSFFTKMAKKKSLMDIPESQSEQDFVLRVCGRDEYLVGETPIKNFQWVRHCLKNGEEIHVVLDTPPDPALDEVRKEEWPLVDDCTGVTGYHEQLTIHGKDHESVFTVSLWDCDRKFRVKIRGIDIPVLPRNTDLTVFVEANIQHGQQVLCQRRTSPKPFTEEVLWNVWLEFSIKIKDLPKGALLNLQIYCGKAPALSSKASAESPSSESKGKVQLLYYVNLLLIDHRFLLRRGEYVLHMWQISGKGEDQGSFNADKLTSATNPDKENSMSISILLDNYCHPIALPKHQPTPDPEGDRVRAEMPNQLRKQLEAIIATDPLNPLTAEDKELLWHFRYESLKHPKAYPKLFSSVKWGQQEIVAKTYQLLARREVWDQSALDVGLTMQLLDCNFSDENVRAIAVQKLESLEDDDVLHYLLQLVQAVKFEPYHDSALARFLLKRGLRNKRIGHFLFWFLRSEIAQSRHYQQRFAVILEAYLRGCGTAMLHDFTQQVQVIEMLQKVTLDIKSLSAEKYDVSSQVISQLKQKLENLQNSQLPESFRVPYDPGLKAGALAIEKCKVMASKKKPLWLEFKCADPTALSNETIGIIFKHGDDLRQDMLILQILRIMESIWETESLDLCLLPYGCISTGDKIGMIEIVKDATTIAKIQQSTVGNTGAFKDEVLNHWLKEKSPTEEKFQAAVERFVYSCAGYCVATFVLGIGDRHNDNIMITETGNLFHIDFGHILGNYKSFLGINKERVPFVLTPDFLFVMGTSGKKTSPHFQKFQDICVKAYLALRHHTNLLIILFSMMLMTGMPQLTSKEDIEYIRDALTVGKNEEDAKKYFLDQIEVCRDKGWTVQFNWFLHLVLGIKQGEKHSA

Nc1nccn2c(C3CCC3)nc(-c3ccc4occc4c3)c12
IC50 (cells): > 10000 nM

Nc1nccn2c(C3CCC3)nc(-c3ccc4nccnc4c3)c12
IC50 (cells): 2600 nM

Nc1nccn2c(C3CCC3)nc(-c3ccc4ccc(-c5ccccc5)nc4c3)c12
IC50 (cells): > 9000 nM

Nc1nccn2c1c(-c1cc3ccccc3[nH]1)nc2[C@H]1C[C@@H](CO)C1
hepatic extraction ratio (in vitro): 0.7 | hepatic extraction ratio [1]: 0.79 | IC50 (cells): 320 nM

Nc1nccn2c1c(-c1cc3ccccc3[nH]1)nc2[C@H]1C[C@@H](O)C1
hepatic extraction ratio (in vitro): 0.74 | hepatic extraction ratio [1]: 0.6 | IC50 (cells): 370 nM

Nc1nccn2c(C3CCC3)nc(-c3c[nH]c4ccccc34)c12
IC50 (cells): > 10000 nM

Nc1nccn2c(C3CCC3)nc(-c3ccc4[nH]ccc4c3)c12
IC50 (cells): 2480 nM

CS(=O)(=O)NC[C@H]1CC[C@H](c2nc(-c3cc4ccccc4[nH]3)c3c(N)nccn32)CC1
IC50 (cells): 410 nM

CO[C@H]1C[C@@H]2CC[C@@H](C)[C@@](O)(O2)C(=O)C(=O)N2CCCC[C@H]2C(=O)O[C@H]([C@H](C)C[C@@H]2CC[C@@H](O)[C@H](OC)C2)CC(=O)[C@H](C)/C=C(\C)[C@@H](O)[C@@H](OC)C(=O)[C@H](C)C[C@H](C)/C=C/C=C/C=C/1C
inhibition (BT-20): inactive | inhibition (MDA-MB-231 [2]): 40%

CC(=O)N1CCC(c2nc(-c3cc4ccccc4[nH]3)c3c(N)nccn23)CC1
hepatic extraction ratio (in vitro): 0.44 | hepatic extraction ratio [1]: 0.43 | IC50 (cells): 690 nM

Nc1nccn2c(C3CCC3)nc(-c3cccc4ccccc34)c12
IC50 (cells): > 10000 nM

Nc1nccn2c(C3CCC3)nc(-c3ccc4cc[nH]c4c3)c12
IC50 (cells): 3120 nM

CC(=O)NC[C@H]1CC[C@H](c2nc(-c3cc4ccccc4[nH]3)c3c(N)nccn32)CC1
Activity (Mus musculus [3]): Active | IC50 [4]: 1260 nM | IC50 [5]: 2720 nM | AUC(0-inf) [6]: 6880 ng·h/mL | IC50 [7]: 5300 nM | clearance [8]: 2 mL/min/kg | IC50 (MDA-MB-231 [9]): 7400 nM | IC50 [10]: 960 nM | Papp [11]: > 25 ×10⁻⁶ cm/s | IC50 [12]: 7400 nM | Cmax [13]: 30.6 µM | AUC(0-inf) [14]: 73800 ng·h/mL | Activity (Mus musculus [15]): Active | bioavailability [16]: 54% | IC50 (cells): 210 nM | Vd [17]: 0.2 L/kg | solubility [18]: > 100 µM | IC50 [19]: 11200 nM | IC50 (Insulin receptor): 22600 nM | fraction unbound [20]: 0.097 | IC50 [21]: 1960 nM | IC50 [22]: 180 nM | half-life [23]: 1.6 h | IC50 [24]: > 30000 nM

Nc1nccn2c(C3CCC3)nc(-c3ccc4ncccc4c3)c12
IC50 (cells): 7150 nM

Nc1nccn2c1c(-c1cc3ccccc3[nH]1)nc2[C@H]1CC[C@H](CNC=O)CC1
hepatic extraction ratio (in vitro): 0.64 | hepatic extraction ratio [1]: 0.51 | IC50 (cells): 150 nM

Nc1nccn2c(C3CCC3)nc(-c3cc4ccccc4s3)c12
IC50 (cells): 130 nM

Nc1nccn2c1c(-c1cc3ccccc3[nH]1)nc2[C@H]1CC[C@H](CNC(=O)c2ccoc2)CC1
hepatic extraction ratio (in vitro): 0.78 | hepatic extraction ratio [1]: 0.76 | IC50 (cells): 90 nM

Nc1nccn2c(C3CCC3)nc(-c3ccc4ccccc4c3)c12
IC50 (cells): 1360 nM

Nc1nccn2c(C3CCC3)nc(-c3ccc4sccc4c3)c12
IC50 (cells): 1300 nM

Nc1nccn2c(C3CCC3)nc(-c3cc4ccccc4[nH]3)c12
hepatic extraction ratio (in vitro): 0.92 | hepatic extraction ratio [1]: 0.94 | IC50 (cells): 460 nM

NC[C@H]1CC[C@H](c2nc(-c3cc4ccccc4[nH]3)c3c(N)nccn32)CC1
hepatic extraction ratio (in vitro): 0.34 | hepatic extraction ratio [1]: 0.28 | IC50 (cells): 1000 nM

Nc1nccn2c(C3CCC3)nc(-c3cnc4ccccc4c3)c12
IC50 (cells): 2350 nM

Nc1nccn2c(C3CCC3)nc(-c3ccc4cccnc4c3)c12
IC50 [25]: > 10000 nM | IC50 (cells): 900 nM

Nc1nccn2c(C3CCC3)nc(-c3cccc(O)c3)c12
IC50 (cells): 1970 nM

CN(C)C(=O)N1CCC(c2nc(-c3cc4ccccc4[nH]3)c3c(N)nccn23)CC1
Activity (Mus musculus [3]): Active | IC50 [4]: 1380 nM | IC50 [5]: > 30000 nM | IC50 [7]: 770 nM | IC50 (MDA-MB-231 [9]): 9300 nM | Activity (MDA-MB-231 [26]): 94% | hepatic extraction ratio (in vitro): 0.68 | AUC(0-inf) [27]: 12100 ng·h/mL | Activity (Mus musculus [28]): Toxic | IC50 [10]: > 10000 nM | Papp [11]: > 25 ×10⁻⁶ cm/s | IC50 [12]: 7800 nM | Cmax [13]: 35.9 µM | AUC(0-inf) [14]: 49400 ng·h/mL | hepatic extraction ratio [1]: 0.67 | Activity (Mus musculus [15]): Active | bioavailability [16]: 102% | IC50 (cells): 120 nM | IC50 [29]: > 10000 nM | Vd [30]: 0.4 L/kg | solubility [18]: > 100 µM | IC50 [19]: > 30000 nM | IC50 (Insulin receptor): > 30000 nM | fraction unbound [20]: 0.119 | IC50 [21]: > 10000 nM | clearance [31]: 7 mL/min/kg | IC50 [22]: 1700 nM | half-life [32]: 0.9 h | IC50 [33]: > 10000 nM | IC50 [24]: > 30000 nM

Nc1nccn2c(C3CCNCC3)nc(-c3cc4ccccc4[nH]3)c12
hepatic extraction ratio (in vitro): 0.18 | hepatic extraction ratio [1]: 0.64 | IC50 (cells): > 10000 nM

Nc1nccn2c1c(-c1cc3ccccc3[nH]1)nc2[C@H]1CC[C@H](CO)CC1
hepatic extraction ratio (in vitro): 0.74 | hepatic extraction ratio [1]: 0.67 | IC50 (cells): 220 nM

CN1CCN([C@H]2C[C@@H](c3nc(-c4cc5ccccc5[nH]4)c4c(N)nccn43)C2)CC1
hepatic extraction ratio (in vitro): 0.44 | hepatic extraction ratio [1]: 0.2 | IC50 (cells): 4000 nM

CN1CCN(C(=O)N2CCC(c3nc(-c4cc5ccccc5[nH]4)c4c(N)nccn34)CC2)CC1
IC50 (cells): 1370 nM

Nc1nccn2c(C3CCC3)nc(-c3cc4cccnc4[nH]3)c12
IC50 (cells): 400 nM

Nc1nccn2c(C3CCC3)nc(-c3cc4ccccc4o3)c12
IC50 (cells): 260 nM

Nc1nccn2c1c(-c1cc3ccccc3[nH]1)nc2[C@H]1CC[C@H](CNC(=O)C2CCC2)CC1
hepatic extraction ratio (in vitro): 0.74 | hepatic extraction ratio [1]: 0.79 | IC50 (cells): 170 nM

CC(=O)N1CCN([C@H]2C[C@@H](c3nc(-c4cc5ccccc5[nH]4)c4c(N)nccn43)C2)CC1
hepatic extraction ratio (in vitro): 0.58 | hepatic extraction ratio [1]: 0.59 | IC50 (cells): 350 nM
